Test results from US6585963B1, “Nail compositions and methods of administering same” (Watson Pharmaceuticals, Inc., priority 2001, dated 2003).

Assay: In vitro human cadaver nail flux study (modified Franz permeation cells)
Type: in vitro ADME
Procedure: The general methods for determining the in vitro nail flux are known in the art. See, for example, U.S. Pat. No. 5,696,164, and references cited therein.
In vitro human cadaver nail flux studies were conducted using modified Franz non-Jacketed permeation cells. The temperature of the nail surface was maintained at 32° C. by placing the cells in a circulating water bath positioned over a stirring module. Human fingernails or toenails were stored under frozen conditions in 0.02% (w/v) sodium azide solution or selected receiver medium. Nails that were greater than 1 cm^2 in area were used for the flux studies. Nails with dorsal side facing the donor compartment were sandwiched between two layers of a closed cell polyethylene foam film. Annular ring of 2.38 cm outer diameter and […] was cut from the backinig film. The area of the donut hole (0.97 cm^2) is large enough to provide complete contact with the receiver media. The purpose of the foam backing film was to prevent any leakage of receiver medium from the cell assembly. The nails were allowed to hydrate at 32° C. overnight with 0.02% (w/v) sodium azide solution in the receiver compartment.
The following morning, nail lacquer sufficient to cover the nail surface was placed onto the dorsal side of the nail. Alternatively, a fixed amount of the lacquer can also be used. Each nail was then loaded between the donor and receiver compartments of a diffusion cell, with the ventral side of nail facing the receiver compartment, and clamped in place. The duration of nail flux and retention study varied from 3 days to 3 weeks. At predetermined sampling intervals, the entire contents of the receiver compartment were collected for drug quantitation and the receiver compartment was filled with fresh receiver solution, taking care to eliminate any air bubbles at the skin/solution interface.
The cumulative amount of drug permeated per unit area at any time t (Qt, μg/cm^2) was determined as follows: [formula] […]

| SMILES | increase in flux rate (Examples II and III, 5% enhancer in Gantrez ES-335/FLC versus formulation without enhancer) | enhancement of nail flux of fluconazole (Example I, using 3-5% triacetin versus formulation without enhancer) | increase in flux rate of fluconazole by pretreatment (Example V, pretreatment with an N-methyl-pyrrolidone composition versus control solution) |
| --- | --- | --- | --- |
| CCCCCCCCCCCC(=O)N(CCO)CCO [L-DEA, Lauramide Diethanolamine (DEA)] | about 40% |  |  |
| OC(Cn1cncn1)(Cn1cncn1)c1ccc(F)cc1F [fluconazole, Fluconazole] |  | about 100% | about 70% |
